Test results published in ChEMBL document CHEMBL1201862, “PubChem BioAssay data set” (2004).
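96-well plates; 48 h exposure; 5 concentrations. Endpoints by linear interpolation between flanking doses. Not reached: highest tested concentration assigned. At the GI50, growth is halved.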 Activity calls are given as the source filed them. Rule as the data show it: active = GI50 up to about 1.1 µM and inactive = higher.

Key:
Test in all cases: growth of human tumour cells (NCI), 48 h
MDA-N = system: MDA-N
SF-268 = system: SF-268
NCI/ADR-RES = system: NCI/ADR-RES
LOX IMVI = system: LOX IMVI
SF-539 = system: SF-539
ACHN = system: ACHN
OVCAR-5 = system: OVCAR-5
DU-145 = system: DU-145
A549 = system: A549
TK-10 = system: TK-10
T47D = system: T47D
Hs-578T = system: Hs-578T
SR = system: SR
EKVX = system: EKVX
PC-3 = system: PC-3
KM12 = system: KM12
SK-OV-3 = system: SK-OV-3
MDA-MB-231 = system: MDA-MB-231
NCI-H460 = system: NCI-H460
CAKI-1 = system: CAKI-1
COLO 205 = system: COLO 205
SNB-19 = system: SNB-19
UACC-257 = system: UACC-257
MCF7 = system: MCF7
MDA-MB-435 = system: MDA-MB-435
SK-MEL-5 = system: SK-MEL-5
HT-29 = system: HT-29
MOLT-4 = system: MOLT-4
RPMI-8226 = system: RPMI-8226
HOP-92 = system: HOP-92
U-251 = system: U-251
K562 = system: K562
SW-620 = system: SW-620
M14 = system: M14
Malme-3M = system: Malme-3M
HL-60 = system: HL-60
OVCAR-8 = system: OVCAR-8
786-0 = system: 786-0
BT-549 = system: BT-549
SF-295 = system: SF-295
HCT-15 = system: HCT-15
HCT-116 = system: HCT-116
HOP-62 = system: HOP-62
NCI-H23 = system: NCI-H23
RXF 393 = system: RXF 393
OVCAR-3 = system: OVCAR-3
SK-MEL-28 = system: SK-MEL-28
SN12C = system: SN12C
IGROV-1 = system: IGROV-1
CCRF-CEM = system: CCRF-CEM
UACC-62 = system: UACC-62
OVCAR-4 = system: OVCAR-4
NCI-H522 = system: NCI-H522
UO-31 = system: UO-31

**Q.** How did the GI50 (MDA-N) turn out when COc1ccc(CCn2ccc(=O)c(O)c2C)cc1OC was run?
**A.** 19.2 µM (inactive)

**Q.** What about the GI50 (SF-268) of the same molecule?
**A.** 2.37 µM (inactive)

**Q.** What about the GI50 (NCI/ADR-RES) of the same molecule?
**A.** 7.45 µM (inactive)

**Q.** And the GI50 (LOX IMVI)?
**A.** 25.5 µM (inactive)

**Q.** What about the GI50 (SF-539) of the same molecule?
**A.** 26.2 µM (inactive)

**Q.** What about the GI50 (ACHN) of the same molecule?
**A.** 5.26 µM (inactive)

**Q.** And the GI50 (OVCAR-5)?
**A.** 26.7 µM (inactive)

**Q.** And the GI50 (DU-145)?
**A.** 12.4 µM (inactive)

**Q.** And the GI50 (A549)?
**A.** 21.4 µM (inactive)

**Q.** What about the GI50 (TK-10) of the same molecule?
**A.** 5.87 µM (inactive)

**Q.** What about the GI50 (T47D) of the same molecule?
**A.** 29.9 µM (inactive)

**Q.** And the GI50 (Hs-578T)?
**A.** < 0.01 µM (active)

**Q.** And the GI50 (SR)?
**A.** 28.4 µM (inactive)

**Q.** And the GI50 (EKVX)?
**A.** 24.4 µM (inactive)

**Q.** And the GI50 (PC-3)?
**A.** 56.2 µM (inactive)

**Q.** And the GI50 (KM12)?
**A.** 40.3 µM (inactive)

**Q.** What about the GI50 (SK-OV-3) of the same molecule?
**A.** 21.2 µM (inactive)

**Q.** What about the GI50 (MDA-MB-231) of the same molecule?
**A.** 1.4 µM (inactive)

**Q.** What about the GI50 (NCI-H460) of the same molecule?
**A.** 5.81 µM (inactive)

**Q.** And the GI50 (CAKI-1)?
**A.** 2.48 µM (inactive)

**Q.** And the GI50 (COLO 205)?
**A.** 26.7 µM (inactive)

**Q.** What about the GI50 (SNB-19) of the same molecule?
**A.** 16 µM (inactive)

**Q.** What about the GI50 (UACC-257) of the same molecule?
**A.** 6.18 µM (inactive)

**Q.** And the GI50 (MCF7)?
**A.** 20.5 µM (inactive)

**Q.** What about the GI50 (MDA-MB-435) of the same molecule?
**A.** 41.6 µM (inactive)

**Q.** And the GI50 (SK-MEL-5)?
**A.** 13.5 µM (inactive)

**Q.** And the GI50 (HT-29)?
**A.** 18.5 µM (inactive)

**Q.** What about the GI50 (MOLT-4) of the same molecule?
**A.** 16 µM (inactive)

**Q.** What about the GI50 (RPMI-8226) of the same molecule?
**A.** 34 µM (inactive)

**Q.** What about the GI50 (HOP-92) of the same molecule?
**A.** 20.4 µM (inactive)

**Q.** What about the GI50 (U-251) of the same molecule?
**A.** 9.64 µM (inactive)

**Q.** What about the GI50 (K562) of the same molecule?
**A.** 37.1 µM (inactive)

**Q.** And the GI50 (SW-620)?
**A.** 41.1 µM (inactive)

**Q.** What about the GI50 (M14) of the same molecule?
**A.** 12.2 µM (inactive)

**Q.** What about the GI50 (Malme-3M) of the same molecule?
**A.** 30.7 µM (inactive)

**Q.** And the GI50 (HL-60)?
**A.** 32.2 µM (inactive)

**Q.** And the GI50 (OVCAR-8)?
**A.** 16.9 µM (inactive)

**Q.** And the GI50 (786-0)?
**A.** 5 µM (inactive)

**Q.** And the GI50 (BT-549)?
**A.** 52.4 µM (inactive)

**Q.** What about the GI50 (SF-295) of the same molecule?
**A.** 5.77 µM (inactive)

**Q.** And the GI50 (HCT-15)?
**A.** 2.7 µM

**Q.** What about the GI50 (HCT-116) of the same molecule?
**A.** 37.2 µM (inactive)

**Q.** And the GI50 (HOP-62)?
**A.** 17.5 µM (inactive)

**Q.** And the GI50 (NCI-H23)?
**A.** 27.9 µM (inactive)

**Q.** With COc1ccc(C2Oc3c(cccc3OC)C=C2[N+](=O)[O-])cc1 (stereo not given) as the molecule, how does the GI50 (MDA-N) read?
**A.** 2 µM (inactive)

**Q.** And the GI50 (SF-268)?
**A.** 2.69 µM (inactive)

**Q.** And the GI50 (NCI/ADR-RES)?
**A.** 2.58 µM (inactive)

**Q.** And the GI50 (LOX IMVI)?
**A.** 1.2 µM (inactive)

**Q.** And the GI50 (ACHN)?
**A.** 1.74 µM (inactive)

**Q.** And the GI50 (OVCAR-5)?
**A.** 2.26 µM (inactive)

**Q.** What about the GI50 (DU-145) of the same molecule?
**A.** 4.38 µM (inactive)

**Q.** What about the GI50 (A549) of the same molecule?
**A.** 11.9 µM (inactive)

**Q.** And the GI50 (TK-10)?
**A.** 2.91 µM (inactive)

**Q.** And the GI50 (T47D)?
**A.** 3.75 µM (inactive)

**Q.** What about the GI50 (Hs-578T) of the same molecule?
**A.** 2.58 µM (inactive)

**Q.** What about the GI50 (SR) of the same molecule?
**A.** 2 µM (inactive)

**Q.** And the GI50 (EKVX)?
**A.** 10.6 µM (inactive)

**Q.** And the GI50 (PC-3)?
**A.** 1.69 µM (inactive)

**Q.** And the GI50 (KM12)?
**A.** 1.92 µM (inactive)

**Q.** And the GI50 (SK-OV-3)?
**A.** 4.26 µM (inactive)

**Q.** What about the GI50 (RXF 393) of the same molecule?
**A.** 1.4 µM (inactive)

**Q.** And the GI50 (OVCAR-3)?
**A.** 2 µM (inactive)

**Q.** What about the GI50 (SK-MEL-28) of the same molecule?
**A.** 1.91 µM (inactive)

**Q.** What about the GI50 (MDA-MB-231) of the same molecule?
**A.** 3.3 µM (inactive)

**Q.** And the GI50 (NCI-H460)?
**A.** 1.81 µM (inactive)

**Q.** And the GI50 (SN12C)?
**A.** 2.02 µM (inactive)

**Q.** What about the GI50 (IGROV-1) of the same molecule?
**A.** 3.33 µM (inactive)

**Q.** And the GI50 (CAKI-1)?
**A.** 1.58 µM (inactive)

**Q.** And the GI50 (COLO 205)?
**A.** 2.51 µM (inactive)

**Q.** What about the GI50 (SNB-19) of the same molecule?
**A.** 3.99 µM (inactive)

**Q.** And the GI50 (UACC-257)?
**A.** 2.96 µM (inactive)

**Q.** What about the GI50 (MCF7) of the same molecule?
**A.** 2.18 µM (inactive)

**Q.** What about the GI50 (MDA-MB-435) of the same molecule?
**A.** 2.12 µM (inactive)

**Q.** What about the GI50 (SK-MEL-5) of the same molecule?
**A.** 1.51 µM (inactive)

**Q.** What about the GI50 (CCRF-CEM) of the same molecule?
**A.** 0.451 µM (active)

**Q.** What about the GI50 (HT-29) of the same molecule?
**A.** 1.63 µM (inactive)

**Q.** What about the GI50 (MOLT-4) of the same molecule?
**A.** 1.19 µM (inactive)

**Q.** What about the GI50 (RPMI-8226) of the same molecule?
**A.** 2.01 µM (inactive)

**Q.** And the GI50 (U-251)?
**A.** 1.86 µM (inactive)

**Q.** What about the GI50 (K562) of the same molecule?
**A.** 0.668 µM (active)

**Q.** What about the GI50 (UACC-62) of the same molecule?
**A.** 1.91 µM (inactive)

**Q.** What about the GI50 (M14) of the same molecule?
**A.** 0.743 µM (active)

**Q.** What about the GI50 (Malme-3M) of the same molecule?
**A.** 2.54 µM (inactive)

**Q.** What about the GI50 (HL-60) of the same molecule?
**A.** 2.17 µM (inactive)

**Q.** What about the GI50 (OVCAR-4) of the same molecule?
**A.** 2.96 µM (inactive)

**Q.** And the GI50 (OVCAR-8)?
**A.** 2.49 µM (inactive)

**Q.** What about the GI50 (786-0) of the same molecule?
**A.** 2.31 µM (inactive)

**Q.** What about the GI50 (NCI-H522) of the same molecule?
**A.** 1.32 µM (inactive)

**Q.** And the GI50 (BT-549)?
**A.** 1.36 µM (inactive)

**Q.** And the GI50 (SF-295)?
**A.** 3.83 µM (inactive)

**Q.** And the GI50 (HCT-15)?
**A.** 1.36 µM

**Q.** What about the GI50 (HCT-116) of the same molecule?
**A.** 1.28 µM (inactive)

**Q.** What about the GI50 (UO-31) of the same molecule?
**A.** 1.71 µM (inactive)

**Q.** What about the GI50 (HOP-62) of the same molecule?
**A.** 2.49 µM (inactive)

**Q.** And the GI50 (NCI-H23)?
**A.** 3.08 µM (inactive)
